# What was measured:
# [1] = Comparison of the stabilities of the waves: wave stability (WSN); settings: waving solution 87 mmoles/100 g reducing agent, standardized to glycerin monothioglycolate solution pH 9 = 100%; for WSN pH = 7: pH 7, 20 minutes at 50° C.; for WSN pH = 8: pH 8, 20 minutes at 50° C.; for WSN pH = 9: pH 9, 20 minutes at 50° C.
# Method: The waving effectiveness of the 1-mercaptopropionamides was determined using glycerin monothioglycolate as comparison substance with the help of waving solutions at a pH of 7, 8 and 9. For this purpose, pre-bleached and therefore damaged counting hair strands (consisting of about 100 hairs) from Middle European hair was wound wet onto standardized spiral curlers (internal diameter of 3 millimeters) and, after being conditioned in an air-conditioned room (temperature: 20° C., relative humidity: 65%), treated with a solution of the reducing agent, containing 87 mmoles/100 g and adjusted to the respective pH. The amount of waving liquid applied was calculated from the ratio of 1:1.2 (1 g of hair: 1.2 mL of waving liquid). A period of action of 20 minutes at a temperature of 50° C. was selected. Subsequently, the hair was fixed with a peroxide-containing material, removed from the curlers and hung up for 4 hours in water (waterbath temperature: 40° C.).
# The wave stability (WSN) is calculated from the following formula:
# [formula] • 1o=total length of the not shaped, stretched strands (16.5 cm) • 1t=length of the strands, removed from the curlers and suspended, after 240 minutes • 1l=length of the shaped strands on curlers (for curlers with an internal diameter of 3 mm, 1l=35 mm)
# As a standard, strands were treated with a glycerin monothioglycolate solution, the pH of which had been adjusted to a value of 9. The standardized wave stabilities, given below in Table 1, relate to this standard solution (pH=9), the wave stability (WSN) of which has been set at 100%.
# pKa value = assay type: physicochemical
compound,measurement,setting,value
COCCCNC(=O)C(C)S (stereo not shown) [N-(3-Methoxypropyl)-2-mercaptopropionamide],WSN pH = 7,[1],79%
same,WSN pH = 8,[1],92%
same,WSN pH = 9,[1],91%
same,melting point,,97 °C
CC(S)C(=O)N1CCCC(O)C1 (stereo not shown),WSN pH = 7,[1],79%
same,WSN pH = 8,[1],94%
same,WSN pH = 9,[1],89%
CCC(O)CNC(=O)C(C)S (stereo not shown) [N-(2-Hydroxy-1-butyl)-2-mercaptopropionamide],WSN pH = 7,[1],79%
same,WSN pH = 8,[1],91%
same,WSN pH = 9,[1],94%
CCN(CC)CCCNC(=O)C(C)S (stereo not shown) [N-(3-Diethylaminopropyl)-2-mercaptopropionamide],WSN pH = 7,[1],77%
same,WSN pH = 8,[1],73%
same,WSN pH = 9,[1],81%
same,melting point,,65 °C
CC(S)C(=O)NCCCN(C)C (stereo not shown) [N-(3-Dimethylaminopropyl)-2-mercaptopropionamide],WSN pH = 7,[1],72%
same,WSN pH = 8,[1],83%
same,WSN pH = 9,[1],95%
same,melting point,,84 °C
CC(S)C(=O)NCCN (stereo not shown) [N-(2-Aminoethyl)-2-mercaptopropionamide],WSN pH = 7,[1],61%
same,WSN pH = 8,[1],81%
same,WSN pH = 9,[1],87%
"CC(S)C(=O)N(CCO)C(C)C (stereo not shown) [N-Isopropyl,N-(2-hydroxyethyl)-2-mercaptopropionamide]",WSN pH = 7,[1],65%
same,WSN pH = 8,[1],88%
same,WSN pH = 9,[1],109%
same,melting point,,100 °C
CC(O)CNC(=O)C(C)S (stereo not shown) [N-(2-Hydroxypropyl)-2-mercaptopropionamide],WSN pH = 7,[1],78%
same,WSN pH = 8,[1],94%
same,WSN pH = 9,[1],94%
same,pKa,pKa value,8.37
CC(S)C(=O)NCCO (stereo not shown) [N-(2-Hydroxyethyl)-2-mercaptopropionamide],WSN pH = 7,[1],84%
same,WSN pH = 8,[1],106%
same,WSN pH = 9,[1],103%
CC(S)C(=O)NCCN(C)C (stereo not shown) [N-(2-Dimethylaminoethyl)-2-mercaptopropionamide],WSN pH = 7,[1],81%
same,WSN pH = 8,[1],87%
same,WSN pH = 9,[1],83%
same,melting point,,83 °C
"CC(S)C(=O)N(C)CCO (stereo not shown) [N-Methyl,N-(2-hydroxyethyl)-2-mercaptopropionamide]",WSN pH = 7,[1],72%
same,WSN pH = 8,[1],91%
same,WSN pH = 9,[1],91%
same,melting point,,95 °C
"CCCN(CCO)C(=O)C(C)S (stereo not shown) [N-Propyl,N-(2-hydroxyethyl)-2-mercaptopropionamide]",WSN pH = 7,[1],77%
same,WSN pH = 8,[1],89%
same,WSN pH = 9,[1],99%
same,melting point,,80 °C
CNCCCNC(=O)C(C)S (stereo not shown) [N-(3-Methylaminopropyl)-2-mercaptopropionamide],WSN pH = 7,[1],55%
same,WSN pH = 8,[1],73%
same,WSN pH = 9,[1],78%
"COCCN(CCOC)C(=O)C(C)S (stereo not shown) [N,N-Bis-(2-methoxyethyl)-2-mercaptopropionamide]",WSN pH = 7,[1],78%
same,WSN pH = 8,[1],93%
same,WSN pH = 9,[1],91%
same,melting point,,85 °C
CCNCCNC(=O)C(C)S (stereo not shown) [N-(2-Ethylaminoethyl)-2-mercaptopropionamide],WSN pH = 7,[1],57%
same,WSN pH = 8,[1],82%
same,WSN pH = 9,[1],60%
Thiolactic acid [reference compound],WSN pH = 7,[1],57%
same,WSN pH = 8,[1],50%
same,WSN pH = 9,[1],70%
CC(S)C(=O)NCCCN (stereo not shown) [N-(3-Aminopropyl)-2-mercaptopropionamide],WSN pH = 7,[1],67%
same,WSN pH = 8,[1],82%
same,WSN pH = 9,[1],88%
CCN(CC)CCNC(=O)C(C)S (stereo not shown) [N-(2-Diethylaminoethyl)-2-mercaptopropionamide],WSN pH = 7,[1],71%
same,WSN pH = 8,[1],80%
same,WSN pH = 9,[1],77%
same,melting point,,74 °C
CC(S)C(=O)NCC1CCCO1 (stereo not shown) [N-Tetrahydrofurfuryl-2-mercaptopropionamide],WSN pH = 7,[1],85%
same,WSN pH = 8,[1],88%
same,WSN pH = 9,[1],94%
same,melting point,,82 °C
COCC(C)NC(=O)C(C)S (stereo not shown) [N-(1-Methoxy-2-propyl)-2-mercaptopropionamide],WSN pH = 7,[1],91%
same,WSN pH = 8,[1],95%
same,WSN pH = 9,[1],99%
same,melting point,,60 °C
CCC(CO)NC(=O)C(C)S (stereo not shown) [N-(1-Hydroxymethylpropyl)-2-mercaptopropionamide],WSN pH = 7,[1],73%
same,WSN pH = 8,[1],88%
same,WSN pH = 9,[1],85%
COCCNC(=O)C(C)S (stereo not shown) [N-(2-Methoxyethy)-2-mercaptopropionamide],WSN pH = 7,[1],87%
same,WSN pH = 8,[1],99%
same,WSN pH = 9,[1],106%
"CC(S)C(=O)N1CCN(C)CC1 (stereo not shown) [N,N-(4-Methylaza-pentamethylene)-2-mercaptopropionamide]",WSN pH = 7,[1],78%
same,WSN pH = 8,[1],86%
same,WSN pH = 9,[1],78%
CC(S)C(=O)NCCN1CCOCC1 (stereo not shown) [N-(2-Morpholinoethyl)-2-mercaptopropionamide],WSN pH = 7,[1],85%
same,WSN pH = 8,[1],93%
same,WSN pH = 9,[1],92%
"CCN(CCO)C(=O)C(C)S (stereo not shown) [N-Ethyl,N-(2-hydroxyethyl)-2-mercaptopropionamide]",WSN pH = 7,[1],94%
same,WSN pH = 8,[1],83%
same,WSN pH = 9,[1],114%
same,melting point,,95 °C

# From patent US7341715B2, “Method and agents on the basis of 2-mercaptopropionic acid amides for durable hair forming and a method for producing same” (Wella AG, priority 2000, dated 2008)
